Results as given in US20250163119A1, “COMPOUNDS FOR THE TREATMENT OF DIABETES OR OBESITY” (Eli Lilly and Company, priority 2023, published 2025).
*1 amine or outer side, *2 acyl side, *3 side chain or, on linkers, in order; H or OH if unused. Where a SMILES comes first, the peptide text is derived from it. Side-chain parts run from the residue outwards. [ ]: non-standard residue; d: D form. The star is where a group is joined. C20 diacid = O=C(O)CCCCCCCCCCCCCCCCCCC(=O)*; γGlu = O=C(O)[C@H](CCC(=O)[*:2])N[*:1]; εLys = N[C@@H](CCCCN[*:1])C(=O)[*:2]; αMeL = CC(C)C[C@](C)(N)C(=O)O; AEEA = NCCOCCOCC(=O)O

Key:
human CRHR2 = target: T1, human CRHR2 (Homo sapiens, UniProt Q13324); test: Human CRHR2 cAMP assay (HTRF) in HEK293 cells stably expressing human CRHR2; format: cell-based; conditions: HEK293 cells overexpressing human CRHR2; relative EC50, maximum 10 nM human UCN2; mean ± SE; read-out: hCRHR2 cAMP EC50 (pM, ± SE)
T1 construct: expressed in transfected cells
T1 sequence (Q13324 1-438 isoform Q13324-2): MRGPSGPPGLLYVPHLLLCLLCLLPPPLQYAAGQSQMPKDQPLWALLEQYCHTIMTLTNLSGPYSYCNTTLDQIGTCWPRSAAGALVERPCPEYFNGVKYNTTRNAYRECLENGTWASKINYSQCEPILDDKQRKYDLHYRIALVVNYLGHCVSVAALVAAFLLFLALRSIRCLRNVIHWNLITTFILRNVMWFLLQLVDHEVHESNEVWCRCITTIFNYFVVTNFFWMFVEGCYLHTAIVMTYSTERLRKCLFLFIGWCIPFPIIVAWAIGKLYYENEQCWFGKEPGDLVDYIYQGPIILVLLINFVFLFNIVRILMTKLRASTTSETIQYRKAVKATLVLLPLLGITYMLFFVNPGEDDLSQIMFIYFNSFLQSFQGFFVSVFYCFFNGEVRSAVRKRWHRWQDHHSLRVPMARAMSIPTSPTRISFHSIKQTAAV
Experimental: (§1) The corticotropin-releasing hormone (CRH) receptor 1 and 2 (CRHR1 and CRHR2) are GPCRs that were functionally coupled to Gs proteins. Stimulation of these receptors results in an increased production of intracellular cAMP, which can be detected using standard in vitro technologies. In vitro activity of peptides was measured by the amount of cAMP formed in human CRHR1 and CRHR2 overexpressed cells.
(§2) Human CRHR1 and CRHR2 receptors were stably expressed in human embryonic kidney cells (HEK293) under control of a pcDNA expression vector. The HEK293 cell line was cultured in DMEM 1× (Gibco, 93-0152DK) supplemented with 10% FBS, 1 mM sodium pyruvate, 1×MEM NEAA, 1× GlutaMAX and 10 mM HEPES. The plasmids of human CRHR1-pQCXIP (T7364) and human CRHR2b-R2683puro (T16761) DNA were transfected into HEK293 cells using Lipo fectAMINE 3000 Transfection reagent (Invitrogen, L3000001). After 20 days under selection, the mRNA levels from different clones were measured to confirm the expression of human CRHR1 and CRHR2 genes. To determine the function of over-expressed CRHR cells, the intracellular cAMP levels in response to human UCN1 and UCN2 were measured and compared to the expression of CRHR1 and CRHR2 mRNA in each clone.
(§3) Human CRHR1 cells were cultured in DMEM 1× (Gibco, 93-0152DK) supplemented with 10% FBS, 1 mM sodium pyruvate, 1×MEM NEAA, 1×GlutaMAX, 10 mM HEPES, and 800 μg/ml G418. Human CRHR2 cells were cultured at the same media (DMEM 1×, 10% FBS, 1 mM sodium pyruvate, 1×MEM NEAA, 1×GlutaMAX, 10 mM HEPES) in the presence of 0.5 ug/mL puromycin. Cultured cells were grown to 90% confluency and harvested. The cells were frozen at 10×10e6/ml in a mixture of […] fetal bovine serum plus 7% DMSO and stored in liquid nitrogen until use.
(§4) On the day of the assay, the frozen cells were thawed and diluted in assay buffer (Phenol Red free MEM (Corning, 17-305-CV, lot #32121010), 0.1% Casein (Sigma C4765, lot #SLCG2120), 5 mM HEPES pH 7.4 containing 0.25 mM IBMX). 10 ul of human CRHR1 cells (25,000 cells) or 10 μL of human CRHR2 cells (5,000 cells) were dispensed into each well of white poly-D-lysine coated 384-well plates (Corning cat #354661). Test compounds diluted in DMSO were added (200 nL/well) in a 1:3 dilution series using ECHO acoustic liquid handler (Beckman). The mixture of cells and test compounds were incubated at 37° C. for 1 hour for the hCRHR1 plate, while the CRHR2 plates were incubated at room temperature for 30 min.
(§5) The amount of intracellular cAMP was quantitated using HTRF technology (Homogeneous Time Resolved Fluorescence; Cisbio) as per vendor instructions. Briefly, 10 uL CAMP-d2 conjugate and 10 uL anti-CAMP-cryptate conjugate in lysis buffer were incubated with the treated cells at room temperature for 60 min. The HTRF signal was immediately detected using an Envision plate reader (Perkin-Elmer) to calculate the ratio of fluorescence at 665 to 620 nm.
(§6) Raw fluorescence data for concentration curves of the peptides in Table 2 and Table 3 were converted to cAMP amount (pmol/well) using a cAMP standard curve generated for each experiment.

human CRHR1 = target: T2, human CRHR1 (Homo sapiens, UniProt P34998); test: Human CRHR1 cAMP assay (HTRF) in HEK293 cells stably expressing human CRHR1; format: cell-based; conditions: HEK293 cells overexpressing human CRHR1; relative EC50, maximum 66 nM human UCN1; mean ± SE; read-out: hCRHR1 cAMP EC50 (pM, ± SE)
T2 construct: expressed in transfected cells
T2 sequence (P34998 24-415): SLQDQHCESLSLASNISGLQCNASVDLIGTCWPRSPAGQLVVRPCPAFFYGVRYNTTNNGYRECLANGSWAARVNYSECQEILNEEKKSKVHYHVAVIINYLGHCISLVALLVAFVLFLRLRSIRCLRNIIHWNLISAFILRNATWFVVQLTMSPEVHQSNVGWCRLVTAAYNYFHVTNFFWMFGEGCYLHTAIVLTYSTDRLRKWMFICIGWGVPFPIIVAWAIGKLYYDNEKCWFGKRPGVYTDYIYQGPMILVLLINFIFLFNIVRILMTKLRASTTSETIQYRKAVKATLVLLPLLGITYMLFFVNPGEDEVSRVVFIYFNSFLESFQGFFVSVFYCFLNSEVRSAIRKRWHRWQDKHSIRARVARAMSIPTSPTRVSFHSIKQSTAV
Experimental: as §1, §2, §3, §4, §5, §6

| SMILES | EC50 (human CRHR2) | EC50 (human CRHR1) |
| --- | --- | --- |
| CC[C@H](C)[C@H](NC(C)=O)C(=O)N[C@H](C(=O)N[C@H](C(=O)N[C@@H](CO)C(=O)N[C@@](C)(CC(C)C)C(=O)N[C@@H](CC(=O)O)C(=O)N[C@@H](C(=O)N1CCC[C@H]1C(=O)N[C@H](C(=O)NCC(=O)N[C@@](C)(CC(C)C)C(=O)N[C@@H](CC(C)C)C(=O)N[C@@H](CCC(N)=O)C(=O)N[C@H](C(=O)N[C@@H](CCCCN)C(=O)N[C@@H](CC(C)C)C(=O)N[C@@H](CCC(=O)O)C(=O)N[C@@H](CCC(N)=O)C(=O)N[C@@H](CCC(=O)O)C(=O)N[C@@H](CCCNC(=N)N)C(=O)N[C@@H](C)C(=O)N[C@@H](CCC(=O)O)C(=O)N[C@@H](CCCCN)C(=O)N[C@@H](C)C(=O)N[C@@H](CCCNC(=N)N)C(=O)N[C@@H](CCC(N)=O)C(=O)N[C@@H](CCC(N)=O)C(=O)N[C@@H](C)C(=O)N[C@@H](CCCCNC(=O)CC[C@H](NC(=O)CC[C@H](NC(=O)[C@@H](N)CCCCNC(=O)CCCCCCCCCCCCCCCCCCC(=O)O)C(=O)O)C(=O)O)C(=O)N[C@@H](CCC(=O)O)C(=O)N[C@@H](CC(N)=O)C(=O)N[C@H](C(=O)N[C@@H](CCC(=O)O)C(=O)N[C@H](C(=O)N[C@@H](CC(C)C)C(=O)N[C@@H](C)C(=O)N[C@@H](CCC(N)=O)C(=O)N[C@H](C(N)=O)C(C)C)[C@@H](C)CC)[C@@H](C)O)[C@@H](C)CC)[C@@H](C)O)C(C)C)[C@@H](C)O)C(C)C [SEQ ID NO: 38, Ac-IVTS αMeL D (D-Val) PTG αMeL LQIKLEQERAEKARQQAK(γE-γE-ϵK-CO-(CH2)18-CO2H)ENTEILAQV-NH2] (Ac-IVTS[αMeL]D[dV]PTG[αMeL]LQIKLEQERAEKARQQAK([γGlu-γGlu-εLys-C20 diacid])ENTEILAQV-NH2) | 6.3 ± 2.1 pM | 1.1e+06 pM |
| CC[C@H](C)[C@H](NC(C)=O)C(=O)N[C@H](C(=O)N[C@H](C(=O)N[C@@H](CO)C(=O)N[C@@](C)(CC(C)C)C(=O)N[C@@H](CC(=O)O)C(=O)N[C@@H](C(=O)N1CCC[C@H]1C(=O)N[C@H](C(=O)NCC(=O)N[C@@](C)(CC(C)C)C(=O)N[C@@H](CC(C)C)C(=O)N[C@@H](CCC(N)=O)C(=O)N[C@H](C(=O)N[C@@H](CCCCN)C(=O)N[C@@H](CC(C)C)C(=O)N[C@@H](CCC(=O)O)C(=O)N[C@@H](CCC(N)=O)C(=O)N[C@@H](CCC(=O)O)C(=O)N[C@@H](CCCNC(=N)N)C(=O)N[C@@H](C)C(=O)N[C@@H](CCC(=O)O)C(=O)N[C@@H](CCCCN)C(=O)N[C@@H](C)C(=O)N[C@@H](CCCNC(=N)N)C(=O)N[C@@H](CCC(N)=O)C(=O)N[C@@H](CCC(N)=O)C(=O)N[C@@H](C)C(=O)N[C@@H](CCCCNC(=O)COCCOCCNC(=O)[C@@H](N)CCCCNC(=O)CC[C@H](NC(=O)CCCCCCCCCCCCCCCCCCC(=O)O)C(=O)O)C(=O)N[C@@H](CCC(=O)O)C(=O)N[C@@H](CC(N)=O)C(=O)N[C@H](C(=O)N[C@@H](CCC(=O)O)C(=O)N[C@H](C(=O)N[C@@H](CC(C)C)C(=O)N[C@@H](C)C(=O)N[C@@H](CCC(N)=O)C(=O)N[C@H](C(N)=O)C(C)C)[C@@H](C)CC)[C@@H](C)O)[C@@H](C)CC)[C@@H](C)O)C(C)C)[C@@H](C)O)C(C)C [SEQ ID NO: 32, Ac-IVTS αMeL D (D-Val) PTG αMeL LQIKLEQERAEKARQQAK((2-[2-(2-Amino-ethoxy)-ethoxy]-acetyl)-ϵK-γE-CO-(CH2)18-CO2H)ENTEILAQV-NH2] (Ac-IVTS[αMeL]D[dV]PTG[αMeL]LQIKLEQERAEKARQQAK([AEEA-εLys-γGlu-C20 diacid])ENTEILAQV-NH2) | 5.4 ± 0.7 pM | > 1e+07 pM |
| CC[C@H](C)[C@H](NC(C)=O)C(=O)N[C@H](C(=O)N[C@H](C(=O)N[C@@H](CO)C(=O)N[C@@](C)(CC(C)C)C(=O)N[C@@H](CC(=O)O)C(=O)N[C@@H](C(=O)N1CCC[C@H]1C(=O)N[C@H](C(=O)NCC(=O)N[C@@](C)(CC(C)C)C(=O)N[C@@H](CC(C)C)C(=O)N[C@@H](CCC(N)=O)C(=O)N[C@H](C(=O)N[C@@H](CCCCN)C(=O)N[C@@H](CC(C)C)C(=O)N[C@@H](CCC(=O)O)C(=O)N[C@@H](CCC(N)=O)C(=O)N[C@@H](CCC(=O)O)C(=O)N[C@@H](CCCNC(=N)N)C(=O)N[C@@H](C)C(=O)N[C@@H](CCC(=O)O)C(=O)N[C@@H](CCCCN)C(=O)N[C@@H](C)C(=O)N[C@@H](CCCNC(=N)N)C(=O)N[C@@H](CCC(N)=O)C(=O)N[C@@H](CCC(N)=O)C(=O)N[C@@H](C)C(=O)N[C@@H](CCCCNC(=O)CNC(=O)[C@H](CCCCN)NC(=O)[C@H](CCC(=O)O)NC(=O)[C@H](CCCCN)NC(=O)[C@H](CCC(=O)O)NC(=O)[C@H](CCCCN)NC(=O)[C@H](CCC(=O)O)NC(=O)CC[C@H](NC(=O)CCCCCCCCCCCCCCCCCCC(=O)O)C(=O)O)C(=O)N[C@@H](CCC(=O)O)C(=O)N[C@@H](CC(N)=O)C(=O)N[C@H](C(=O)N[C@@H](CCC(=O)O)C(=O)N[C@H](C(=O)N[C@@H](CC(C)C)C(=O)N[C@@H](C)C(=O)N[C@@H](CCC(N)=O)C(=O)N[C@H](C(N)=O)C(C)C)[C@@H](C)CC)[C@@H](C)O)[C@@H](C)CC)[C@@H](C)O)C(C)C)[C@@H](C)O)C(C)C [SEQ ID NO: 43, Ac-IVTS αMeL D (D-Val) PTG αMeL LQIKLEQERAEKARQQAK(GKEKEKE-γE-CO-(CH2)18-CO2H)ENTEILAQV-NH2] | 7.9 ± 1.3 pM | > 1e+07 pM |
